Assays:
LC3-II, LAMP2, p62 = test: Autophagy markers after shPuf-A transduction (Western blot); format: cell-based; details: p53-proficient cells (p53+/+ HCT116)
Excerpt: (§1) FIG. 7A is an assembly of images showing the effect of control shRNA, shPuf-A-1 and Puf-A-2 on Puf-A expression and cleaved form of PARP1, by transducing control shRNA, shPuf-A-1 and Puf-A-2 into the following p53-deficient and p53-proficient cell lines: A549, H460, U87, HCT116, H1299, CL1-5, MB231, LN229 and T98. FIG. 7B is a series of flow cytometry (FACS) images, illustrating the cell-cycle of Puf-A depleted (shPuf-A transduced) p53 proficient (p53 wild type) and p53 deficient (p53 defective) cancer cell lines. FIG. 7C is a series of Western blot images showing the effect shPuf-A-1 transduction on the expression of Puf-A, LC3 (marker for autophagosome), LAMP2 (marker for lysosome) and p62 (an autophagy substrate) in p53^+/+HCT116, p53^−/−HCT116, and p53^−/−H1299 cancer cell lines. FIG. 7D is a Western Blot image illustrating the effect of suppressing p53 and Puf-A in p53-proficient cells (H460). FIG. 7E is a series of immunofluorescence images illustrating the effect of silencing Puf-A, by shPuf-A-1 transduction, on LC3 (green), Lamp1 (red) and DAPI (blue) expression in p53 proficient (p53^+/+) HCT116, P53 deficient (p53^−/−) HCT116 and H1299 cancer cells. FIG. 7F is a series of graphs illustrating reduced proliferation rate of p53^−/− HCT116 and H1299 cells after shPuf-A-1 and shPuf-A-2 transduction compared to control shRNA transduction. […]

LC3-II, LAMP1 = test: Immunofluorescence staining of LC3-II and LAMP1 after shPuf-A-1 transduction; format: cell-based
Excerpt: FIG. 7A is an assembly of images showing the effect of control shRNA, shPuf-A-1 and Puf-A-2 on Puf-A expression and cleaved form of PARP1, by transducing control shRNA, shPuf-A-1 and Puf-A-2 into the following p53-deficient and p53-proficient cell lines: A549, H460, U87, HCT116, H1299, CL1-5, MB231, LN229 and T98. FIG. 7B is a series of flow cytometry (FACS) images, illustrating the cell-cycle of Puf-A depleted (shPuf-A transduced) p53 proficient (p53 wild type) and p53 deficient (p53 defective) cancer cell lines. FIG. 7C is a series of Western blot images showing the effect shPuf-A-1 transduction on the expression of Puf-A, LC3 (marker for autophagosome), LAMP2 (marker for lysosome) and p62 (an autophagy substrate) in p53^+/+HCT116, p53^−/−HCT116, and p53^−/−H1299 cancer cell lines. FIG. 7D is a Western Blot image illustrating the effect of suppressing p53 and Puf-A in p53-proficient cells (H460). FIG. 7E is a series of immunofluorescence images illustrating the effect of silencing Puf-A, by shPuf-A-1 transduction, on LC3 (green), Lamp1 (red) and DAPI (blue) expression in p53 proficient (p53^+/+) HCT116, P53 deficient (p53^−/−) HCT116 and H1299 cancer cells. FIG. 7F is a series of graphs illustrating reduced proliferation rate of p53^−/− HCT116 and H1299 cells after shPuf-A-1 and shPuf-A-2 transduction compared to control shRNA transduction.

Puf-A proteins = test: Puf-A protein expression after shPuf-A transduction of cancer cell lines (Western blot); format: cell-based; details: A549, H460, H1299, CL1-5, HCT116, MB231, U87, LN229, T98 cells
Excerpt: as §1, with “cells.” for “cells. FIG. 7F is a series of graphs illustrating reduced proliferation rate of p53^−/− HCT116 and H1299 cells after shPuf-A-1 and shPuf-A-2 transduction compared to control shRNA transduction.”
The biological function of Puf-A on cancer cells was assessed, using lung cancer cells (A549, H460, H1299 and CL1-5); colorectal cancer cells (HCT116); breast cancer cells (MB231) and glioblastoma cells (U87, LN229 and T98).

p53 and p21 = p53 and p21 protein/RNA expression in p53 proficient cancer cells after Puf-A suppression; format: cell-based; details: A549, H460 or HCT116 p53 proficient cells
Excerpt: FIG. 8A is a series of Western blot, RT-PCR and Q-PCR images, illustrating shPuf-A1 and shPuf-A2 transduction increases the expression of p53 and p21 and reduces transcripts of PUF-A in the following p53-proficient (p53^+/+) cancer cell lines: A549, H460, and HCT116. FIG. 8B is a series of immunostaining images illustrating the expression of p53 (red) and DAPI (blue, internal control) in p53-proficient (p53^+/+) cancer cell lines A549, H460 and HCT116 cells and P53 deficient (p53^−/−) HCT116 cancer cells after control shRNA and shPuf-A-1 transduction. FIG. 8C is a series of bar graphs illustrating the FACS analyzed cell-cycles of Puf-A depleted cancer cells, A549, H460 and HCT116, with different p53 genotypes.
The effect of Puf-A suppression on the expression level of p53 and p21 protein/RNA in p53 proficient cancer cells was examined, by infecting A549, H460 or HCT116 cancer cells with shPuf-A-1, shPuf-A-2 or control shRNA viral vectors. […] Cell-cycle progression of the same cancer cell lines was analyzed by FACS.

Puf-A RNA = test: Puf-A knockdown by shRNA lentivirus vectors, RT-PCR and Q-PCR; format: cell-based, human; details: for knockdown efficiency on Puf-A expression compared to control shRNA: HCT116 and H1299 cells, Q-PCR (FIG. 6D); for expression level of Puf-A RNA compared to control shRNA: p53-proficient (p53+/+ HCT116) and p53-deficient (p53−/− HCT116, p53−/− H1299) cells, GAPDH internal control
Experimental: FIG. 6A show the nucleotide sequence of human Puf-A gene (SEQ ID NO:1). […] FIG. 6C and FIG. 6D illustrate the Puf-A knockdown efficiency of control shRNA, shPuf-A-1 and shPuf-A-2 in colorectal cancer cells (HCT116) and lung cancer cells (H1299), determined by RT-PCR and Q-PCR analyses.
The effect of the shRNAs constructs in FIG. 6B on Puf-A expression was evaluated using p53-proficient (p53^+/+ HCT116) and p53-deficient (p53^−/− HCT116 and p53^−/− H1299). The cells were transduced with control shRNA, shPuf-A-1 and shPuf-A-2 lentivirus vectors and Puf-A expression was determined by […] and Q-PCR. […] The knockdown efficiencies of shPuf-A-1 and shPuf-A-2 on Puf-A expression were approximately 90% and 75%, respectively, compare to the control shRNA (FIG. 6D).

[1] = tested on: p53-deficient and P53-proficient cancer cells; test: Proliferation rate of cancer cells after shPuf-A transduction; format: cell-based; details: p53-deficient and P53-proficient cancer cells (FIG. 7F)
Excerpt: as §1

[2] = tested on: adenoma-bearing LSL-Kras^G12D/p53^flox mice; test: In vivo evaluation of Puf-A suppression in tumourigenesis (intranasal lentiviral shRNA); details: lentiviral vector intranasally twice a week for two weeks; sacrificed 6 weeks after Kras^G12D activation and p53 deletion
Excerpt: FIG. 5A schematically illustrates the in vivo study design of Puf-A shRNA delivery to knock down Puf-A. FIG. 5B is an assembly of microscopic images illustrating the number of tumor foci in mice administered with of control shRNA or Puf-A shRNA. FIG. 5C is a series of bar graphs illustrating the counted numbers of tumor foci (>250 μm) in mice with adenocarcinoma (left bar graph) and adenoma (right bar graph), after the administration of control or Puf-A-2 shRNA.
An in vivo evaluation of Puf-A suppression in tumourigenesis was performed using LSL-Kras^G12D1p53^flox mice.
FIG. 5A schematically illustrates the study design. LSL-Kras^G12D/p53^flox mice developed adenoma after 2 weeks of Kras^G12D activation and p53 deletion. Lentiviral vector, expressing shPuf-A-2 (a Puf-A shRNA) or control shRNA, was intranasally delivered to adenoma-bearing LSL-Kras^G12D/p53^flox mice twice a week for two weeks. The mice were sacrificed 6 weeks after Kras^G12D activation and p53 deletion.

Substance	level of LC3-II expression (LC3-II, LAMP2, p62)	expression and co-localization of LC3-II and LAMP1 (LC3-II, LAMP1; p53-deficient cancer cells)	LAMP1 around the nuclei (LC3-II, LAMP1; p53-proficient cancer cells)	expression level of Puf-A proteins compared to control shRNA (Puf-A proteins)	expression level of p21 protein or RNA compared to control shRNA (p53 and p21)	expression level of p53 protein or RNA compared to control shRNA (p53 and p21)	knockdown efficiency on Puf-A expression compared to control shRNA (Puf-A RNA)	expression level of Puf-A RNA compared to control shRNA (Puf-A RNA)	proliferation rate compared to control shRNA virus [1]	reduction of number of adenocarcinoma focus (>250 μm) vs control shRNA vector [2] [fold]	reduction of number of adenoma focus (>250 μm) vs control shRNA vector [2] [fold]
shPuf-A-1: novel short hairpin RNA targeting Puf-A, encoded by SEQ ID NO:2, delivered by lentivirus vector (DNA CCGGGCCTAGCATAGTAAATGACAACTCGAGTTGTCATTTACTATGCTAGGCTTTTTTG)	slight increase	increase expression and co-localization	slight increase	significantly reduced	significantly increased	significantly increased	approximately 90%	significantly reduced	reduced		
shPuf-A-2: novel short hairpin RNA targeting Puf-A, encoded by SEQ ID NO:3, delivered by lentivirus vector (DNA CCGGCGTGTGATCCAGTGTTACATTCTCGAGAATGTAACACTGGATCACACGTTTTTG)	slight increase			significantly reduced	significantly increased	significantly increased	~75%	significantly reduced	reduced	15.4	2.6

Reference: patent publication US9885044B2, “Polynucleotides and methods for inhibiting cancer cells” (Chang Gung Memorial Hospital, Linkou, priority 2015, dated 2018)
